# According to patent US20040197333A1, “Use of TGF-beta antagonists to inhibit tumor cell formation or progression” (Cornell Research Foundation, Inc., priority 2000, published 2004):
# System: A-549 cells
# Assay: Scanning electron microscopy of cell morphology (invasive phenotype)
# Assay type: cell-based, human
# Settings: 2ngm^−1 recombinant TGF-β1 protein
# Description: Scanning electron microscopy. […] Cells were fixed with PBS, pH 7.4, containing 2.0% glutaraldehyde, and processed as previously described (Ref 17). Samples were examined using a JEOL 25SIII electron microscope.
# A-549 cells express functional receptors for TGF-β, and their growth and functions are regulated by TGF-β (refs. 7 and 8). The experiments with A-549 cells were established ex vivo to avoid any confounding effects of CsA-associated inhibition of in vivo immune surveillance mechanism(s).
substance,measurement,value
recombinant TGF-β1 protein: recombinant TGF-β1 protein added to A-549 cells,morphological alterations in A-549 cells,induced morphological alterations in A-549 cells that were similar to those elicited by CsA
